The values below come from patent publication US20260218267A1, “METHODS AND COMPOSITIONS FOR PRODUCTION AND PURIFICATION OF PEPTIDES” (priority 2023, published 2026).

Data set [1] relates to grey mold (Botrytis cinerea). In words: Disease control assay, tomato plants infected with grey mold. It counts as in vivo. The settings on record: peptide sprayed 24 h post infection at 0.1 g/l or 0.3 g/l, FIG. 17. The method, then:
The peptides were sprayed 24 h post infection at concentration of 0.1 g/l or 0.3 g/l.
Peptide production was performed using the chaotropic agent-free protocol described in Example 8.
A synthetic peptide (MP18913), which mimics the concatemeric sequence with an N-terminus proline (P) and C-terminus aspartate (D), was chemically synthetized and used as a control treatment.
Peptide activity was assessed by a disease control assay using tomato plants infected with grey mold (Botrytis cinerea). Peptides were sprayed 24 h post infection at concentration of 0.1 g/l or 0.3 g/l. Disease control percentage was determined based on convex hull recovery, with a total of 7 plants examined (n=7) upon infection with Botrytis spores at 250 spores/ml.

For data set [2] the following is noted: general statement on onconase; cited from earlier work.

As for MP18913 (PKKEEMSYMKRD), in data set [1], the “Control of tomato grey mold infection, comparison in words” value was “as effective, or slightly more effective, than the chemically synthetized version”.

B1: Onconase: RNAse first identified in Rana pipiens, about 104 amino acids, used as insoluble carrier polypeptide (protein, UniProt P22069 1-104, looked up)
Protein P-30: QDWLTFQKKHITNTRDVDCDNIMSTNLFHCKDKNTFIYSRPEPVKAICKGIIASKNVLTTSEFYLSDCNVTSRPCKYKLKKSTNKFCVTCENQAPVHFVGVGSC
Regarding B1, the pI entry in data set [2] is “higher than 9.5”.
